Results as given in ChEMBL document CHEMBL1146357, “Antidepressant-like profile of action of two 4-amine derivatives of 10,11-dihydro-5H-dibenzo [a,d] cycloheptane in mice evaluated in the forced swimming test” (2007).

Legend:
Assay type in all cases: functional
Conditions in all cases: route intraperitoneal
[1] = system: Mus musculus; assay: Antidepressant activity in Swiss mouse assessed as immobility time at 50 mg/kg, ip thrice a day by 5-mins swim test
[2] = system: Mus musculus; assay: Antidepressant activity in Swiss mouse assessed as reduction in immobility time at 30 mg/kg/day, ip after 10 days by 5-mins swim test; design: scale not given: the % may be the effect or the level left
[3] = system: Mus musculus; assay: Effect on motor co-ordination in Swiss mouse assessed as number of falls at 30 mg/kg, ip after 10 days by Rota-rod test
[4] = system: Mus musculus; assay: Effect on motor co-ordination in Swiss mouse assessed as time on rotating bar at 30 mg/kg, ip after 10 days by Rota-rod test
[5] = system: Mus musculus; assay: Antidepressant activity in Swiss mouse assessed as immobility time at 15 mg/kg, ip thrice a day by 5-mins swim test
[6] = system: Mus musculus; assay: Antidepressant activity in Swiss mouse assessed as immobility time at 5 mg/kg, ip thrice a day by 5-mins swim test
[7] = system: Mus musculus; assay: Antidepressant activity in Swiss mouse assessed as immobility time at 1 mg/kg, ip thrice a day by 5-mins swim test
[8] = system: Mus musculus; assay: Antidepressant activity in Swiss mouse assessed as immobility time at 30 mg/kg/day, ip after 10 days by 5-mins swim test
[9] = system: Mus musculus; assay: Antidepressant activity in Swiss mouse assessed as immobility time at 30 mg/kg, ip thrice a day by 5-mins swim test
[10] = system: Mus musculus; assay: Antidepressant activity in Swiss mouse assessed as reduction in immobility time at 50 mg/kg/day, ip after 10 days by 5-mins swim test; design: scale not given: the % may be the effect or the level left
[11] = system: Mus musculus; assay: Effect on motor co-ordination in Swiss mouse assessed as time on rotating bar at 50 mg/kg, ip after 10 days by Rota-rod test
[12] = system: Mus musculus; assay: Effect on motor co-ordination in Swiss mouse assessed as number of falls at 50 mg/kg, ip after 10 days by Rota-rod test
[13] = system: Mus musculus; assay: Antidepressant activity in Swiss mouse assessed as immobility time at 100 mg/kg, ip thrice a day by 5-mins swim test
[14] = system: Mus musculus; assay: Antidepressant activity in Swiss mouse assessed as immobility time at 50 mg/kg/day, ip after 10 days by 5-mins swim test
[15] = system: Mus musculus; assay: Effect on motor co-ordination in Swiss mouse assessed as number of falls at 15 mg/kg, ip after 10 days by Rota-rod test
[16] = system: Mus musculus; assay: Effect on motor co-ordination in Swiss mouse assessed as time on rotating bar at 15 mg/kg, ip after 10 days by Rota-rod test

Compound | Time [1] | Activity [2] | Activity [3] | Time [4] | Time [5] | Time [6] | Time [7] | Time [8] | Time [9] | Activity [10] | Time [11] | Activity [12] | Time [13] | Time [14] | Activity [15] | Time [16]
c1ccc2c(c1)CCc1cccc3c1C2=NCCN3 | 199.25 s | 15% | 0.4 | 58.6 s | 186.57 s | 197 s | 215 s | 186.4 s | 169.92 s |  |  |  |  |  |  | 
CN(C)CCCNc1cccc2c1C(=O)c1ccccc1CC2 | 132 s |  |  |  | 187.1 s | 220.22 s |  |  | 169.31 s | 13% | 59.5 s | 0.5 | 206.38 s | 190.33 s |  | 
CN(C)CCCN1c2ccccc2CCc2ccccc21 [IMIPRAMINE] |  |  |  |  | 137.33 s |  |  |  |  |  |  |  |  |  | 0.83 | 58.11 s
